Assay results taken from patent publication US20080045463A1, “Methods For Lowering Hif-1 Mediated Gene Expression” (priority 2004, published 2008).
Blank lines part the entries; values can stand above or below the compound they belong to.

What was measured:
[1] = system: HIF-1α; assay: HIF-1α accumulation in 22B head and neck cancer cells; assay type: cell-based, human; conditions: 22B cells, 100 μM each, last 30 minutes after 24 hours accumulation
Experimental: (§1) Human U87, U251, U251-HRE (20) and U373 glioma cells were cultured in Eagle's MEM medium (Mediatech). DU145 human prostate cancer cells and 022 human head and neck cancer cells were cultured in RPMI 1640 medium (Sigma). 22B Human head and neck cancer cells were cultured in high glucose DMEM (Gibco) containing 2 mM glutamine. C6 ODD-GFP rat glioma cells were cultured in high glucose DMEM with 1.5 mg/ml G418. All culture media were supplemented with 10% fetal bovine serum and 1% (v/v) penicillin/streptomycin. Rat C6 glioma cells were cultured in high glucose DMEM. For cell hypoxia treatment, the culture dishes were sealed in a modular incubator chamber, flushed with gas containing 1% O2, 5% CO2 and 94% N2 for 5 minutes, and incubated in this environment at 37° C. for indicated times.
(§2) Protein extraction, western blot analysis, and immunocytochemistry were performed as previously described. Mouse monoclonal anti-HIF-1α antibodies were 610958 (BD Biosciences), and NB100-123 (Novus). Mouse monoclonal anti-GFP antibody was 1814460 (Roche). Mouse monoclonal anti-β-actin antibody was ab6276-100 (Abcam). Dimethyloxalylglycine was D1070 (Frontier Scientific). All other chemicals were from Sigma. Antibodies recognizing HPH homologues were from Novus biologicals and the antisera recognizing […] of HIF-1α was kindly provided by R. Freeman.

[2] = system: HIF-1α; assay: HIF-1α decay after washout of inducer; assay type: cell-based, human; conditions: 100 μM each
Experimental: as §1, §2
To test this U251 cells was exposed to glucose-free Krebs buffer to either hypoxia (1% O2) or 2 mM pyruvate for four hours. Nuclear HIF-1α protein accumulation was induced by both treatments (FIG. 6A). […] HIF-1α immunoreactivity disappeared rapidly upon reoxygenation (return to 21% O2) of hypoxic cells as would be expected with the resumption of oxygen-dependent HIF-1α hydroxylation and proteolysis. […] To directly determine if the HPH activity in glioma cells was reversibly inactivated by pyruvate and oxaloacetate the ^35S-pVHL pulldown assay to measure HPH activity in extracts from cells treated for four hours with the 2-oxoacids was used. To capture the endogenous state of HPH activity, the cell extracts were first assayed without supplementation with exogenous reductants, ascorbate, or iron. […] The minimal HPH activity of extracts from pyruvate or oxaloacetate treated cells could also be restored by supplementation of the extracts with ascorbate or with exogenous ferrous iron (FeSO4) during the assay (FIG. 6D).

[3] = system: HPH; assay: HPH activity in extracts of treated U251 cells (35S-pVHL pulldown); assay type: cell-based, human
Experimental: (§3) Human HPH-1,2,3 and VHL pcDNA3.1/V5-HIS vectors (kindly provided by R. Bruick) were used for TNT Coupled Reticulocyte Lysate in vitro transcription/translation (Promega). Cytoplasmic extract for HPH activity was made by lysing cell pellets in assay buffer (20 mM Tris, pH 7.5, 5 mM KCl, 1.5 mM MgCl2, and 1 mM DTT) at 4° C. using a homogenizer, centrifuging at 20,000 g for 15 minutes and collecting supernatant for the assay. HPH enzymatic reactions were performed as previously described using either IVT products or cell extracts. This assay, chosen for its specificity for the HPH reaction, was linear over 30 minutes. For each reaction, either 7.5 μL of IVT products or 100 μg of cell extract protein were used as source of the enzyme. Activity was measured by either quantitative scintillation counting or by autoradiography after gel electrophoresis on a 10-20% Tris Glycine gradient gel (Invitrogen).
To test this U251 cells was exposed to glucose-free Krebs buffer to either hypoxia (1% O2) or 2 mM pyruvate for four hours. Nuclear HIF-1α protein accumulation was induced by both treatments (FIG. 6A). Then the cells were either returned to 21% O2 or the pyruvate was removed by extensively washing with glucose-free Krebs buffer. […]

[4] = system: HIF-1α; assay: Nuclear HIF-1α accumulation in human cancer cell lines (western blot); assay type: cell-based
Experimental: as §1, with “DU145 human prostate cancer cells and 022 human head and neck cancer cells were cultured in RPMI 1640 medium (Sigma).” left out
Protein extraction, western blot analysis, and immunocytochemistry were performed as previously described. […] Mouse monoclonal anti-β-actin antibody was ab6276-100 (Abcam). Dimethyloxalylglycine was D1070 (Frontier Scientific). All other chemicals were from Sigma.

[5] = system: HPH; assay: 2-Oxoglutarate: HPH binding assay; design: species or system human; conditions: addition of 200 μM ferrous iron
Experimental: Gel was washed four times with the indicated buffer. Analysis of HPH binding was measured by scintillation counting.

[6] = system: labile intracellular iron pool; assay: Calcein fluorescence assay for cellular free iron; assay type: cell-based, human; conditions: calcein loaded U251 cells
Experimental: The ability of 2-oxoacids to chelate the labile intracellular iron pool was measured using the calcein fluorescence assay as previously described. The iron chelators desferrioxamine and bipyridyl were used as positive controls.

[7] = system: HIF-1α; assay: HIF-1α hydroxyproline detection in U251 whole cell extracts; assay type: cell-based, human; conditions: U251, four hours, antibody to hydroxylated ODD region
Experimental: as §2
Some reactive oxygen species can also induce HIF-1α. […] Next, attention was focused on HIF-1α proline hydroxylation as a target for 2-oxoacids.

[8] = system: HIF-1; assay: HIF-1 luciferase reporter assay in U251-HRE cells; assay type: cell-based, human; conditions: 2 mM 2-oxoacid, 250 μM amino acid, 8 h
[9] = system: ODD-GFP; assay: Live cell assay for oxygen-dependent degradation, ODD-GFP transfected C6 glioma cells; assay type: cell-based, rat; conditions: C6 cells in Krebs buffer; amino acids 0.5 mM
Experimental: as §1
Next a live cell assay for oxygen-dependent HIF-1α degradation using C6 rat glioma cells that had been stably transfected with a vector encoding the HIF-1 cc ODD region fused to GFP (ODD-GFP) was performed. The ODD-GFP protein is hydroxylated and degraded in an oxygen dependent manner similar to HIF-1α. As with HIF-1α, a basal, as well as, hypoxia-inducible accumulation of ODD-GFP has been reported.

[10] = system: VEGF and GLUT3; assay: RT-PCR of HIF-1 regulated genes in U87 cells; assay type: cell-based, human; conditions: U87, 5× the level normally found in MEM, 2 d
Experimental: Total RNA was isolated using the RNeasy kit (Qiagen). For RT-PCR, 1 μg of total RNA was used with the […] One-Step System (Invitrogen). VEGF, GLUT3, and β-Actin primers were described previously. For quantitative PCR analysis, the iQ SY BR Green Supermix and MyiQ Single-Color

[11] = system: HPH1, HPH2, and HPH3; assay: HPH prolyl hydroxylation assay with in vitro translated HPHs (35S-pVHL pulldown); assay type: biochemical, human; conditions: in the absence of ascorbate or other reducing agents
Experimental: as §3
To determine whether HPH activity was directly modulated by pyruvate or oxaloacetate, Pro564 hydroxylation in a biotinylated HIF-1α ODD peptide by in vitro translated HPH1, HPH2, and HPH3 was examined. The ability of streptavidin beads to pull down ^35S-pVHL bound to the biotinylated peptide was used as evidence of HIF-1α ODD peptide hydroxylation. This is the most specific and sensitive assay for HPH activity. […] Such assays can also give high background values in cell extracts.

[12] = system: HIF-1α; conditions: requires conversion to pyruvate via lactate dehydrogenase (Lu et al. 2002); cited from earlier work

binding of 35S-HPH homologues to the 2-OG column [5]: doubled
Structure (SMILES): O=S(=O)([O-])[O-].[Fe+2] [Fe(II)]
accumulated (pyruvate-enhanced) HIF-1α after supplementation [1]: Fe(II)>Fe(III)
accumulated (pyruvate-enhanced) HIF-1α after supplementation ([1]; listed as ferrous iron): diminished to a greater extent by ferrous iron than by ferric iron
HIF-1α decay following induction with pyruvate or oxaloacetate, iron in wash [2]: enhancement of HIF-1α decay
decay of NO-induced HIF-1α with iron in wash [2]: accelerated the decay
decay of accumulated HIF-1α after washing out DFO, iron added [2]: promoted decay
HPH activity of extracts from pyruvate or oxaloacetate treated cells, extract supplemented during assay ([3]; 100 μM each): restored
HIF-1α induction by pyruvate and oxaloacetate with iron added to cultured cells ([4]; U251, Fe(II) 100 μM): prevented HIF-1α induction
NO induced HIF-1α accumulation ([4]; U251, MEM, DETA-NO 300 μM, ascorbate 100 μM, Fe(II) 100 μM, GSH 5 mM): complete inhibition
intracellular calcein fluorescence [6]: decrease in fluorescence

Structure (SMILES): COC(=O)CNC(=O)C(=O)OC [DMOG, dimethyloxalylglycine]
HPH activity in extracts of cells treated for four hours ([3]; U251, 2 mM pyruvate or oxaloacetate, 1 mM DMOG, no exogenous reductants, ascorbate or iron): no loss of HPH activity
hydroxyproline (Pro564) in induced HIF-1α [7]: did not contain hydroxyproline

Structure (SMILES): N[C@@H](CS)C(=O)O [cysteine]
HRE-luciferase activity induced by pyruvate or oxaloacetate [8]: lowered HRE-luciferase activity
ODD-GFP induction by pyruvate or oxaloacetate [9]: reduced ODD-GFP induction
HIF-1α accumulation by hypoxia or the iron chelator DFO ([4]; FIG. 3C, 1% O2 or 150 μM DFO): did not affect
inhibition of basal HIF-1α accumulation ([4]; U87, Krebs buffer reconstituted with MEM additives at concentration normally present in MEM, four hours): key amino acids responsible for inhibiting basal HIF-1α accumulation
inhibition of HIF-1α accumulation, L- vs D-isomers and dimer ([4]; U87, four hours, glucose-free Krebs, 1 mM pyruvate or oxaloacetate, 250 μM (FIG. 3C)): effective
HIF-1α induction by glucose, pyruvate, and oxaloacetate ([4]; all cell lines used in this study (data not shown)): lowered HIF-1α induction
inhibition of basal HIF-1α accumulation in complete culture media ([4]; amino acid raised to 5× its normal level in MEM): likely endogenous inhibitors of basal HIF-1α accumulation
basal expression of the HIF-1 regulated genes VEGF and GLUT3 [10]: lowered the basal expression
stimulation of HIF-1α ODD hydroxylation [11]: dose dependently stimulate HIF-1α ODD hydroxylation

Structure (SMILES): CC(O)C(=O)O (stereo not shown) [lactate]
HIF-1α accumulation induced by lactate [12]: can induce HIF-1α accumulation
